Earlier results in publication PMC9851200, “Multiparameter phenotypic screening for endogenous TFEB and TFE3 translocation identifies novel chemical series modulating lysosome function” (Autophagy, 2022).

Experiments:
Set-up in all cases: method as in original PKIS2 published data
[1] = biological target: T1, kinases (KINOMEscan panel) (Homo sapiens, UniProt Q9Y616); conditions: IRAK3; Published KINOMEscan; ref original PKIS2 published data; cited from earlier work
T1 sequence (Q9Y616 1-596): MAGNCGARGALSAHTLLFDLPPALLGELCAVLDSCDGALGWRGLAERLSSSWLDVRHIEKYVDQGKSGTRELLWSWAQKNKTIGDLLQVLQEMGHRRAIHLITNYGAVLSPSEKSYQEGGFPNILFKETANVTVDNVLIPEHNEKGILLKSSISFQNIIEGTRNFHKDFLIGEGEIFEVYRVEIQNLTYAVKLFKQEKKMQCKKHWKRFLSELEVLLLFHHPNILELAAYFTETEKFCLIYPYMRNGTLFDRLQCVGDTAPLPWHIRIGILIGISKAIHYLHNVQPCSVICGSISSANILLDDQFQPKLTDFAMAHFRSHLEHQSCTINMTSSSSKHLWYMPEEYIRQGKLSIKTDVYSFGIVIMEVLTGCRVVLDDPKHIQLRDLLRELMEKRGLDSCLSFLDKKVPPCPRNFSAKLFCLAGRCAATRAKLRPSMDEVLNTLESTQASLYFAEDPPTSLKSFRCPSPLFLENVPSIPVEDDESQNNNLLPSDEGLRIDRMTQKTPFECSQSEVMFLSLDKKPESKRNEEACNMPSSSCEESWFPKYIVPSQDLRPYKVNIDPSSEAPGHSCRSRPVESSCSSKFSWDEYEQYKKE

[2] = biological target: kinases (KINOMEscan panel) (Homo sapiens, UniProt Q06187); conditions: kinase BTK; Published KINOMEscan; ref original PKIS2 published data; cited from earlier work
[3] = biological target: kinases (KINOMEscan panel) (Homo sapiens, UniProt Q9H1R3); conditions: MYLK2; Published KINOMEscan; ref original PKIS2 published data; cited from earlier work
[4] = biological target: T2, kinases (KINOMEscan panel) (Homo sapiens, UniProt P78356); conditions: PIP4K2B; Published KINOMEscan; ref original PKIS2 published data; cited from earlier work
T2 sequence (P78356 1-416): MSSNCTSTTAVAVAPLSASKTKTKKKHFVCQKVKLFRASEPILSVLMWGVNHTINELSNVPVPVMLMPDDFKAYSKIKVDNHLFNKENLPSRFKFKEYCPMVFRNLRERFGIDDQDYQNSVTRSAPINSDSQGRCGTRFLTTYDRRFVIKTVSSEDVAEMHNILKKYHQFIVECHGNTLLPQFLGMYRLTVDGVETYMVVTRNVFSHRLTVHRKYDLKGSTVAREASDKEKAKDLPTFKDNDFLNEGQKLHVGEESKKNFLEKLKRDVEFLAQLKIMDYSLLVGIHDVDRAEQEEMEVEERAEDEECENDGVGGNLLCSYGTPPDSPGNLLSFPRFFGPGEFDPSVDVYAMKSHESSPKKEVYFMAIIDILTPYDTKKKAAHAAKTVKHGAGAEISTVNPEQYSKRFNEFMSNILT

[5] = biological target: T3, kinases (KINOMEscan panel) (Homo sapiens, UniProt Q99759); conditions: MAP3K3; Published KINOMEscan; ref original PKIS2 published data; cited from earlier work
T3 sequence (Q99759 1-626): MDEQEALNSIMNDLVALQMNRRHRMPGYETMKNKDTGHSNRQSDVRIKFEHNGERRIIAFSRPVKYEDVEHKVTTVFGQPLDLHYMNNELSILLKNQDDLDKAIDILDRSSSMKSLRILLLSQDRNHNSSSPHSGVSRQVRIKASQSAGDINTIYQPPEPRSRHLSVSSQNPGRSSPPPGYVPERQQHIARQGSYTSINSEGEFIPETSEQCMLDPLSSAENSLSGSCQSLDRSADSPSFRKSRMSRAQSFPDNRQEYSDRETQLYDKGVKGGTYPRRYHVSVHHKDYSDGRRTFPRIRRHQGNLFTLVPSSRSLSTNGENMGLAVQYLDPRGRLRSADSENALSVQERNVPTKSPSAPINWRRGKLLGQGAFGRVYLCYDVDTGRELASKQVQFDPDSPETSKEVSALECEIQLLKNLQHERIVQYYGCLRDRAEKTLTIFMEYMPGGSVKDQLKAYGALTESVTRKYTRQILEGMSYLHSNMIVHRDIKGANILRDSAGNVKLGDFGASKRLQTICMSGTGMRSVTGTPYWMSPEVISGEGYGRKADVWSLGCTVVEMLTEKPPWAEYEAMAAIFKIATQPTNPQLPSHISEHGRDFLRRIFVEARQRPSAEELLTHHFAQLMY

[6] = biological target: kinases (KINOMEscan panel) (Homo sapiens, UniProt Q00537); conditions: kinase CDK17; Published KINOMEscan; ref original PKIS2 published data; cited from earlier work
[7] = biological target: kinases (KINOMEscan panel) (Homo sapiens, UniProt P51957); conditions: kinase NEK4; Published KINOMEscan; ref original PKIS2 published data; cited from earlier work
[8] = biological target: kinases (KINOMEscan panel) (Homo sapiens, UniProt P49759); conditions: kinase CLK1; Published KINOMEscan; ref original PKIS2 published data; cited from earlier work
Sequence of kinases (KINOMEscan panel) (Homo sapiens, UniProt P49759) (P49759 whole entry): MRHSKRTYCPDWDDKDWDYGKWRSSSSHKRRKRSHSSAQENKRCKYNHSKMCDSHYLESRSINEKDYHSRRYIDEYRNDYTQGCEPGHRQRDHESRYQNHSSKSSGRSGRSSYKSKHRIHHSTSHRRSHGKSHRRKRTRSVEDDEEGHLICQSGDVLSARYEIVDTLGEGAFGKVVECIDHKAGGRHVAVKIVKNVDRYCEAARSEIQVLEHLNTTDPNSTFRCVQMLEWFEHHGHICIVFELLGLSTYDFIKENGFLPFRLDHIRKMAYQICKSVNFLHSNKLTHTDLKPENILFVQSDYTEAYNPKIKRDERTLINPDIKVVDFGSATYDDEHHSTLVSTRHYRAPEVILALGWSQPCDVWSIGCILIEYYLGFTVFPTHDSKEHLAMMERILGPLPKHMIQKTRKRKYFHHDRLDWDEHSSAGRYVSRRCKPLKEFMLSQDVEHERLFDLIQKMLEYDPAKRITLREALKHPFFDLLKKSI

Sequence of kinases (KINOMEscan panel) (Homo sapiens, UniProt Q06187) (Q06187 whole entry): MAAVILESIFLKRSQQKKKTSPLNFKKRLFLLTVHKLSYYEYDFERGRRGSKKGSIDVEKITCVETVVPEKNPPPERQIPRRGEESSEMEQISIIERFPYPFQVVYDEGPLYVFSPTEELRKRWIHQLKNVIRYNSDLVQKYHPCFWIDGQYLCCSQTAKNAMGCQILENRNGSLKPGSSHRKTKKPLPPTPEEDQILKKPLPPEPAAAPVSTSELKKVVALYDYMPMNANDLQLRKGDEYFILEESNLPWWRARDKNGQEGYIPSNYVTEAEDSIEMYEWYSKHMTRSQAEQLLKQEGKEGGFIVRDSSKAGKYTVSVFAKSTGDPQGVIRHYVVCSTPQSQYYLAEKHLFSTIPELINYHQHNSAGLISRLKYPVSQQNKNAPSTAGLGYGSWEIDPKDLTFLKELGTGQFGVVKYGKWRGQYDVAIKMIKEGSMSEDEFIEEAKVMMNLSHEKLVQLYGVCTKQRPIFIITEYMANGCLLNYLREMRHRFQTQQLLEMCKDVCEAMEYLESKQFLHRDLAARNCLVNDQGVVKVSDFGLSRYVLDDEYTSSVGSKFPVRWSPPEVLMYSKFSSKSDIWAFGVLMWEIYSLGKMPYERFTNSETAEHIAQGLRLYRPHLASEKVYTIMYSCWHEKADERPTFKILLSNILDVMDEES
Sequence of kinases (KINOMEscan panel) (Homo sapiens, UniProt Q9H1R3) (Q9H1R3 whole entry): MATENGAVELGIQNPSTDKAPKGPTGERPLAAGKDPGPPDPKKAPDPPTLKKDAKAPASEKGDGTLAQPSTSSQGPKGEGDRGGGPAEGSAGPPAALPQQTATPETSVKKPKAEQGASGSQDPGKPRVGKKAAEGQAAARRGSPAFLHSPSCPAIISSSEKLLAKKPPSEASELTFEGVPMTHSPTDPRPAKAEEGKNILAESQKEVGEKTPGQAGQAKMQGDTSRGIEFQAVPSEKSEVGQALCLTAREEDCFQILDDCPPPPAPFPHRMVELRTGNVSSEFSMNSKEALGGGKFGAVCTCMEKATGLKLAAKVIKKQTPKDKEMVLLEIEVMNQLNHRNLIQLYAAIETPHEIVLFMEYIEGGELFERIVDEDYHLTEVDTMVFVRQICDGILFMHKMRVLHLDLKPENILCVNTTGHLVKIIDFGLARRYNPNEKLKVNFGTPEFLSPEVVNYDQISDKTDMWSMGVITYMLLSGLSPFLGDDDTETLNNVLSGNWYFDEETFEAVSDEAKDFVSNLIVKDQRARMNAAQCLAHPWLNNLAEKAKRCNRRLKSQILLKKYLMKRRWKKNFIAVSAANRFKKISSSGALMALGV
Sequence of kinases (KINOMEscan panel) (Homo sapiens, UniProt Q00537) (Q00537 whole entry): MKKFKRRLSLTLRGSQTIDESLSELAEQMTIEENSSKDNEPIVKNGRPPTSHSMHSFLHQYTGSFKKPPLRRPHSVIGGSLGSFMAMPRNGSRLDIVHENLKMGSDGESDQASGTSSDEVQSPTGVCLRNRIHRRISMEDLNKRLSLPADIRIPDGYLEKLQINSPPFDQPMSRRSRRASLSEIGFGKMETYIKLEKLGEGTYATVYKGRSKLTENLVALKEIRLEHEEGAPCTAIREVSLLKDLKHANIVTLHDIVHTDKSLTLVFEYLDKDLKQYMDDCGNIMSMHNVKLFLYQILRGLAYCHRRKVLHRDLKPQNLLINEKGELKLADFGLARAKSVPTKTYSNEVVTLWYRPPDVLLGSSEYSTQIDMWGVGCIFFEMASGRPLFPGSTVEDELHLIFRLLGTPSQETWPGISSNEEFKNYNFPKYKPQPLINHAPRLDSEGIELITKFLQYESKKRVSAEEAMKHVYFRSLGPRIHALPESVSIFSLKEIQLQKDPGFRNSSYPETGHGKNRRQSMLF
Sequence of kinases (KINOMEscan panel) (Homo sapiens, UniProt P51957) (P51957 whole entry): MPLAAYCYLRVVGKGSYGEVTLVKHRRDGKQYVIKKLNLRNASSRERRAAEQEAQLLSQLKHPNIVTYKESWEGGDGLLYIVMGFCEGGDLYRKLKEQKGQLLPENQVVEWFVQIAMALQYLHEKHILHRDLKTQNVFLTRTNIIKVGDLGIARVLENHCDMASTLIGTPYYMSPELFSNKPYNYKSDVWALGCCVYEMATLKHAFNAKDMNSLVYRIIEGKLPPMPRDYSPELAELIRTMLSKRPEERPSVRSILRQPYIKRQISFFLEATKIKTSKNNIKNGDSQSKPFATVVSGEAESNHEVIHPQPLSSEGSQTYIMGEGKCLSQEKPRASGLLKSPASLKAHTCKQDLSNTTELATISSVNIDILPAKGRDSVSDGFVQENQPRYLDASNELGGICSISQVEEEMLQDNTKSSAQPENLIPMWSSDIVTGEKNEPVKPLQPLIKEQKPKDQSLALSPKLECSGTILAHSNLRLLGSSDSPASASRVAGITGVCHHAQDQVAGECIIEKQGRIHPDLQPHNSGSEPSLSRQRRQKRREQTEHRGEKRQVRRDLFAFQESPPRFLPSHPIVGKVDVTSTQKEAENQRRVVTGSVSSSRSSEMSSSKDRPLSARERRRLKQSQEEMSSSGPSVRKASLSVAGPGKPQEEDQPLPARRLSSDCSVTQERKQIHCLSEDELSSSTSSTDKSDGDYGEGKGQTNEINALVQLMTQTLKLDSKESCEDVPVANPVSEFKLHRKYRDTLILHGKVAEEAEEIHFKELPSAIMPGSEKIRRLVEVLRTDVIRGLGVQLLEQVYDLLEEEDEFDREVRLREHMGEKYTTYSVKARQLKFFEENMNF

## Cc1cccc(-c2nc(Nc3ccncc3)c3ccccc3n2)n1 [NK215]
[1]
  KINOMEscan IRAK3: 21
[2]
  KINOMEscan BTK: 0
[3]
  KINOMEscan MYLK2: 7
[4]
  KINOMEscan PIP4K2B: 0
[5]
  KINOMEscan MAP3K3: 0
[6]
  KINOMEscan CDK17: 10
[7]
  KINOMEscan NEK4: 0
[8]
  KINOMEscan CLK1: 10
